From the kinase profiling compilation of Christmann-Franck et al. (2016)

Tests used:
Experiment in all cases: radiometric filter-binding kinase assay
GCK (human) = GCK (human) (UniProt Q12851)
PHKG1 (human) = PHKG1 (human) (UniProt Q16816)
IRAK1 (human) = IRAK1 (human) (UniProt P51617)
HIPK2 (human) = HIPK2 (human) (UniProt Q9H2X6)
SRPK1 (human) = SRPK1 (human) (UniProt Q96SB4)
JAK2 JH1 JH2 (human) = JAK2 JH1 JH2 (human) (UniProt O60674)
STK3 (human) = STK3 (human) (UniProt Q13188)
HIPK1 (human) = HIPK1 (human) (UniProt Q86Z02)
MAP3K11 (human) = MAP3K11 (human) (UniProt Q16584)
[1] = system: OXSR1 (human), O95747 [T185E]
TBK1 (human) = TBK1 (human) (UniProt Q9UHD2)
MARK4 (human) = MARK4 (human) (UniProt Q96L34)
MKNK1 (human) = MKNK1 (human) (UniProt Q9BUB5)
NTRK1 (human) = NTRK1 (human) (UniProt P04629)
CSK (human) = CSK (human) (UniProt P41240)
MINK1 (human) = MINK1 (human) (UniProt Q8N4C8)
[2] = system: SGK1 (human), O00141 [S422D]
DYRK3 (human) = DYRK3 (human) (UniProt O43781)
MAPK10 (human) = MAPK10 (human) (UniProt P53779)
MAP3K9 (human) = MAP3K9 (human) (UniProt P80192)
RPS6KA5 KD1 KD2 (human) = RPS6KA5 KD1 KD2 (human) (UniProt O75582)
PRKCG (human) = PRKCG (human) (UniProt P05129)
EEF2K (human) = EEF2K (human) (UniProt O00418)
MAPKAPK2 (human) = MAPKAPK2 (human) (UniProt P49137)
MAPK13 (human) = MAPK13 (human) (UniProt O15264)
CLK2 (human) = CLK2 (human) (UniProt P49760)
ABL1 (human) = ABL1 (human) (UniProt P00519)
IKBKB (human) = IKBKB (human) (UniProt O14920)

Chain of SGK1 (human), O00141 [S422D] (O00141 whole entry S422D, looked up): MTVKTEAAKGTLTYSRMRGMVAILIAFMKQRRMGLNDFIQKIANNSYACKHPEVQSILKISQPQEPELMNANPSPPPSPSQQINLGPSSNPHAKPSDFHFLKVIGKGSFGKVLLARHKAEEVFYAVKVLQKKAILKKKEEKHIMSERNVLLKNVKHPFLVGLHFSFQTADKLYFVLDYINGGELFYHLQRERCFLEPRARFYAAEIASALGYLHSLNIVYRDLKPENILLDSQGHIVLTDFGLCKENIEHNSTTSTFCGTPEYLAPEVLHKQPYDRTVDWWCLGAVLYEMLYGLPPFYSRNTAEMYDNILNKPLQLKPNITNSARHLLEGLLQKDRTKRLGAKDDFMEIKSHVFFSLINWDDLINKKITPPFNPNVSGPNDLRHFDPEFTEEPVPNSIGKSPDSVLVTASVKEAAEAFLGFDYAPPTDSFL
Chain of EEF2K (human) (O00418 whole entry, looked up): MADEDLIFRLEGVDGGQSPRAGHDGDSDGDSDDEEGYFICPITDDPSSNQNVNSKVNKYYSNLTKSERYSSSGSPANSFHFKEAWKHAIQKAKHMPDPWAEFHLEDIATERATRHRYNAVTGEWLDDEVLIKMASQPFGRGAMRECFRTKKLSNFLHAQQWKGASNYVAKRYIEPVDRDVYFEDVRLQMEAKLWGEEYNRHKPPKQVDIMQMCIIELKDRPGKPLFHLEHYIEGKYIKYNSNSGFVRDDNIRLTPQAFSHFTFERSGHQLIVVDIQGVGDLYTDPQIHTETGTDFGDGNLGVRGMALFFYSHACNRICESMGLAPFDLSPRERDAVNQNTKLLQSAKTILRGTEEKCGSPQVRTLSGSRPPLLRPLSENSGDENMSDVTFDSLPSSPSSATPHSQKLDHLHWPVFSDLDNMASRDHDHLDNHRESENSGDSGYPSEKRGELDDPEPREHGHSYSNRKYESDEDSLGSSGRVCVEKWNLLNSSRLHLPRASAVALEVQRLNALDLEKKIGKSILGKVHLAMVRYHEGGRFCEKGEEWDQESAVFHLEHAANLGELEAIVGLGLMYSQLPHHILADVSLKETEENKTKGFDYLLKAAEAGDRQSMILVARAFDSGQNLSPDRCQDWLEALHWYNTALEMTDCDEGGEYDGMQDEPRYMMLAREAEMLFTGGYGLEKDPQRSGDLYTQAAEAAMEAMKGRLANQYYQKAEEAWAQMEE
Chain of MKNK1 (human) (Q9BUB5 whole entry, looked up): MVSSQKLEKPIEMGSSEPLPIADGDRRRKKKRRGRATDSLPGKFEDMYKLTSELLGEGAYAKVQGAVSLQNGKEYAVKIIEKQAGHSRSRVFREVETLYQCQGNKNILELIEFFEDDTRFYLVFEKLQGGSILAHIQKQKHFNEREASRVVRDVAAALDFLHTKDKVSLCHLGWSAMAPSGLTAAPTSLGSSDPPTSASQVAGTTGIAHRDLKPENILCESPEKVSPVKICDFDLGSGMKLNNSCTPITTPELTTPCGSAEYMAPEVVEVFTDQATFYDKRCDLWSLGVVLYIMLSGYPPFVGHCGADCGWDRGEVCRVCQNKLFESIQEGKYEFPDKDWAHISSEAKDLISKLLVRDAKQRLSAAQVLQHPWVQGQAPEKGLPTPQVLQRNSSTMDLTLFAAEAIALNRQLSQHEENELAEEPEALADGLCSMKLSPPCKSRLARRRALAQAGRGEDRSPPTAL
Chain of MARK4 (human) (Q96L34 whole entry, looked up): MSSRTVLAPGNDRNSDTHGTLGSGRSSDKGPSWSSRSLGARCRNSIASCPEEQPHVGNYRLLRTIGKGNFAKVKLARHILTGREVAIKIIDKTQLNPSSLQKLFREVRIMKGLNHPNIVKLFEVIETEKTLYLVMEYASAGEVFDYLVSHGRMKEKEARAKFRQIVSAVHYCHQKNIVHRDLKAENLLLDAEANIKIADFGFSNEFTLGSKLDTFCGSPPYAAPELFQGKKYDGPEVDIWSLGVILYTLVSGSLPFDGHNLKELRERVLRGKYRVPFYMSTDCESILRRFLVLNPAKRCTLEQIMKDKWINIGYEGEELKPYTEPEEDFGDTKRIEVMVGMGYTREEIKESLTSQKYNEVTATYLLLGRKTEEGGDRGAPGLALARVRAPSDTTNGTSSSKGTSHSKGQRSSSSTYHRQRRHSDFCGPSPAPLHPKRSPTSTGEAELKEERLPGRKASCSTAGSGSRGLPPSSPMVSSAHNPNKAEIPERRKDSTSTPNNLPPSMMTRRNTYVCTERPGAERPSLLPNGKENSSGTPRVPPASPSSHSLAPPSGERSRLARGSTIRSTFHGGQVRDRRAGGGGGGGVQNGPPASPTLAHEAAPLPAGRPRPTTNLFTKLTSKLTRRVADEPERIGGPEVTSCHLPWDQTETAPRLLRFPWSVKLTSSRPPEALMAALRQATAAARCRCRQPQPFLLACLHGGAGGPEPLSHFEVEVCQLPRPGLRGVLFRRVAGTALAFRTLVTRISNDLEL
Chain of MAPK10 (human) (P53779 whole entry, looked up): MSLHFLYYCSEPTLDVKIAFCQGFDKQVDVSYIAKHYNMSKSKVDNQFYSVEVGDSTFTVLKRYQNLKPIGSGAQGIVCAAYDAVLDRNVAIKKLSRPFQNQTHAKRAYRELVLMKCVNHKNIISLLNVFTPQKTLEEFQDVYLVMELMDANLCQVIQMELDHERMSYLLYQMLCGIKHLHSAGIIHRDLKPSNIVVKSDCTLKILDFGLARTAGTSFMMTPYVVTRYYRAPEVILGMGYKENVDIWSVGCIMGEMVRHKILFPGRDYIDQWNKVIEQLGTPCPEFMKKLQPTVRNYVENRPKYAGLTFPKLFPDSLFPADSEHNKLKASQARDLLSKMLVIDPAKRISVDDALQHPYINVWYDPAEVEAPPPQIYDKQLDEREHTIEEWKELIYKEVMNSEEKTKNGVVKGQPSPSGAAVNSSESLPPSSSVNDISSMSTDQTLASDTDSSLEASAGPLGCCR
Chain of MINK1 (human) (Q8N4C8 whole entry, looked up): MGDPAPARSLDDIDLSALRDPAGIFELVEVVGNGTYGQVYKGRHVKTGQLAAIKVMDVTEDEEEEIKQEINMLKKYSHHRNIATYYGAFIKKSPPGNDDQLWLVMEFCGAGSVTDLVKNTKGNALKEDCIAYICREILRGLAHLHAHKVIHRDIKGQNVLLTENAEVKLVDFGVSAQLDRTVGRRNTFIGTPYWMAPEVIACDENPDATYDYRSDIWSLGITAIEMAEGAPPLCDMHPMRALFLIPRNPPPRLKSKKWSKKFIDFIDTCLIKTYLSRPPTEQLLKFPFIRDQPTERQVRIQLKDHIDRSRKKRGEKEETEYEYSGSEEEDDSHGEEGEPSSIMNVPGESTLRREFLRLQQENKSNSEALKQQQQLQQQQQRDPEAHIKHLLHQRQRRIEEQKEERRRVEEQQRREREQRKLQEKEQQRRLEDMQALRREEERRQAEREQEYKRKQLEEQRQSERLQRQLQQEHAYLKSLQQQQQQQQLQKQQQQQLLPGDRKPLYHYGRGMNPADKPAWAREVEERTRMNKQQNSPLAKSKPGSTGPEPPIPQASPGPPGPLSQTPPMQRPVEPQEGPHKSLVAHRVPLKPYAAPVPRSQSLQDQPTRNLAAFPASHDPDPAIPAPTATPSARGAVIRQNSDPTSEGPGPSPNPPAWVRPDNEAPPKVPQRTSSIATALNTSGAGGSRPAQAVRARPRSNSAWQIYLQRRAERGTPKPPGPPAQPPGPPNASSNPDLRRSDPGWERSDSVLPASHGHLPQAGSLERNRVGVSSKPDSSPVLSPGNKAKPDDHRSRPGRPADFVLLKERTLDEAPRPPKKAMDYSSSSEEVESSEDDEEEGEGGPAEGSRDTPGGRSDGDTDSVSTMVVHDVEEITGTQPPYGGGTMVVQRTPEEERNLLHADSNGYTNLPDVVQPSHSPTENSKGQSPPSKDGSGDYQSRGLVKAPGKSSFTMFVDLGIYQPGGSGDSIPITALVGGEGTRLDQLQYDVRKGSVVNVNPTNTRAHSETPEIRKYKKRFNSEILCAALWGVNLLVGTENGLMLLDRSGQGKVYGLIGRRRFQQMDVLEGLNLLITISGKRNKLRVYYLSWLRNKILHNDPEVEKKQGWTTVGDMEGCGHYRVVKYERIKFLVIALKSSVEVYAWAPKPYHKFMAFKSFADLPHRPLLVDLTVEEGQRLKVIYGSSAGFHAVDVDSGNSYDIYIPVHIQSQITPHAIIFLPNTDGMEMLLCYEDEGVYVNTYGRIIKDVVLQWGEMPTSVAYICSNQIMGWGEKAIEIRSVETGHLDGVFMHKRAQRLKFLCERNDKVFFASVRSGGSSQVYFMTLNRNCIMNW
Chain of GCK (human) (Q12851 whole entry, looked up): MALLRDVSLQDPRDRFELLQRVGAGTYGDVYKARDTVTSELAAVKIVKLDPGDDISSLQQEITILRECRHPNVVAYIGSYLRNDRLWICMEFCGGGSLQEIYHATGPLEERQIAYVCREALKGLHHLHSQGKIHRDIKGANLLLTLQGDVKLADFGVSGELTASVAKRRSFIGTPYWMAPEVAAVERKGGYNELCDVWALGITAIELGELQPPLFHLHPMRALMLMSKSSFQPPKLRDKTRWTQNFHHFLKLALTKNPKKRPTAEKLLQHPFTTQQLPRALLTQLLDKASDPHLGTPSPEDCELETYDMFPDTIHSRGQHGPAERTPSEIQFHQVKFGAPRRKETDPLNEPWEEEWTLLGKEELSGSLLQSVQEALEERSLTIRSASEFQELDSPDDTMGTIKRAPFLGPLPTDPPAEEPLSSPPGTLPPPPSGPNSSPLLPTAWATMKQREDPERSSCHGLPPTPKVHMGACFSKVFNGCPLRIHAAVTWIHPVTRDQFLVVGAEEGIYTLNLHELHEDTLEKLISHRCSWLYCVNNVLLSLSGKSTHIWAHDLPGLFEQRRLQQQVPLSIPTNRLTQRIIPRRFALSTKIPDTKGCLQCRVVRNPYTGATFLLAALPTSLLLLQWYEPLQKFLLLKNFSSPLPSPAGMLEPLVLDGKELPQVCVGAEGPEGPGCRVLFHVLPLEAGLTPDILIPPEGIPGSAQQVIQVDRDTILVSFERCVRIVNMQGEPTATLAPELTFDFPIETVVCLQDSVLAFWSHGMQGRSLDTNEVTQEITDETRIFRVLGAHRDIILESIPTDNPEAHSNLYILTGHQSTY

CCN1CCN(Cc2ccc(NC(=O)c3ccc(C)c(Oc4ccnc5[nH]ccc45)c3)cc2C(F)(F)F)CC1
residual activity (GCK (human); compound 0.1 µM): 24.1%
residual activity (GCK (human); compound 1.0 µM): 12.3%
residual activity (GCK (human); compound 10.0 µM): 9.08%
residual activity (PHKG1 (human); compound 0.1 µM): 102%
residual activity (PHKG1 (human); compound 1.0 µM): 112%
residual activity (PHKG1 (human); compound 10.0 µM): 102%
residual activity (IRAK1 (human); compound 0.1 µM): 80.9%
residual activity (IRAK1 (human); compound 1.0 µM): 72.2%
residual activity (IRAK1 (human); compound 10.0 µM): 33.4%
residual activity (HIPK2 (human); compound 0.1 µM): 105%
residual activity (HIPK2 (human); compound 1.0 µM): 60.3%
residual activity (HIPK2 (human); compound 10.0 µM): 12.6%
residual activity (SRPK1 (human); compound 0.1 µM): 102%
residual activity (SRPK1 (human); compound 1.0 µM): 97.1%
residual activity (SRPK1 (human); compound 10.0 µM): 73%
residual activity (JAK2 JH1 JH2 (human); compound 0.1 µM): 93.4%
residual activity (JAK2 JH1 JH2 (human); compound 1.0 µM): 92.4%
residual activity (JAK2 JH1 JH2 (human); compound 10.0 µM): 41.6%
residual activity (STK3 (human); compound 0.1 µM): 111%
residual activity (STK3 (human); compound 1.0 µM): 124%
residual activity (STK3 (human); compound 10.0 µM): 91.5%
residual activity (HIPK1 (human); compound 0.1 µM): 95%
residual activity (HIPK1 (human); compound 1.0 µM): 70.8%
residual activity (HIPK1 (human); compound 10.0 µM): 28.7%
residual activity (MAP3K11 (human); compound 0.1 µM): 95.1%
residual activity (MAP3K11 (human); compound 1.0 µM): 50.3%
residual activity (MAP3K11 (human); compound 10.0 µM): 8.66%
residual activity ([1]; compound 0.1 µM): 54%
residual activity ([1]; compound 10.0 µM): 1.79%
residual activity (TBK1 (human); compound 0.1 µM): 113%
residual activity (TBK1 (human); compound 1.0 µM): 100%
residual activity (TBK1 (human); compound 10.0 µM): 96%
residual activity (MARK4 (human); compound 0.1 µM): 116%
residual activity (MARK4 (human); compound 1.0 µM): 104%
residual activity (MARK4 (human); compound 10.0 µM): 88.7%
residual activity (MKNK1 (human); compound 0.1 µM): 98%
residual activity (MKNK1 (human); compound 1.0 µM): 104%
residual activity (MKNK1 (human); compound 10.0 µM): 82.7%
residual activity (NTRK1 (human); compound 0.1 µM): 111%
residual activity (NTRK1 (human); compound 1.0 µM): 77.7%
residual activity (NTRK1 (human); compound 10.0 µM): 43.4%
residual activity (CSK (human); compound 0.1 µM): 81.8%
residual activity (CSK (human); compound 1.0 µM): 15.4%
residual activity (CSK (human); compound 10.0 µM): 7.86%
residual activity (MINK1 (human); compound 0.1 µM): 75.7%
residual activity (MINK1 (human); compound 1.0 µM): 11.4%
residual activity (MINK1 (human); compound 10.0 µM): 4.56%
residual activity ([2]; compound 0.1 µM): 101%
residual activity ([2]; compound 1.0 µM): 72.8%
residual activity ([2]; compound 10.0 µM): 52.1%
residual activity (DYRK3 (human); compound 0.1 µM): 96.5%
residual activity (DYRK3 (human); compound 1.0 µM): 86.3%
residual activity (DYRK3 (human); compound 10.0 µM): 82%
residual activity (MAPK10 (human); compound 0.1 µM): 116%
residual activity (MAPK10 (human); compound 1.0 µM): 91.8%
residual activity (MAPK10 (human); compound 10.0 µM): 31.8%
residual activity (MAP3K9 (human); compound 0.1 µM): 106%
residual activity (MAP3K9 (human); compound 1.0 µM): 90%
residual activity (MAP3K9 (human); compound 10.0 µM): 39.6%
residual activity (RPS6KA5 KD1 KD2 (human); compound 0.1 µM): 81.2%
residual activity (RPS6KA5 KD1 KD2 (human); compound 1.0 µM): 45.8%
residual activity (RPS6KA5 KD1 KD2 (human); compound 10.0 µM): 21.4%
residual activity (PRKCG (human); compound 0.1 µM): 108%
residual activity (PRKCG (human); compound 1.0 µM): 102%
residual activity (PRKCG (human); compound 10.0 µM): 106%
residual activity (EEF2K (human); compound 0.1 µM): 110%
residual activity (EEF2K (human); compound 1.0 µM): 102%
residual activity (EEF2K (human); compound 10.0 µM): 100%
residual activity (MAPKAPK2 (human); compound 0.1 µM): 110%
residual activity (MAPKAPK2 (human); compound 1.0 µM): 122%
residual activity (MAPKAPK2 (human); compound 10.0 µM): 113%
residual activity (MAPK13 (human); compound 0.1 µM): 98.7%
residual activity (MAPK13 (human); compound 1.0 µM): 33.7%
residual activity (MAPK13 (human); compound 10.0 µM): 7.2%
residual activity (CLK2 (human); compound 0.1 µM): 115%
residual activity (CLK2 (human); compound 1.0 µM): 104%
residual activity (CLK2 (human); compound 10.0 µM): 75.8%
residual activity (ABL1 (human); compound 0.1 µM): 51.4%
residual activity (ABL1 (human); compound 1.0 µM): 3.77%
residual activity (ABL1 (human); compound 10.0 µM): 0.874%
residual activity (IKBKB (human); compound 0.1 µM): 114%
residual activity (IKBKB (human); compound 1.0 µM): 101%
residual activity (IKBKB (human); compound 10.0 µM): 44.6%
